Assay [1] deals with Toxoplasma gondii RH-β1 strain. Put plainly: microbe, parasite or virus in culture. It counts as cell-based. Particulars: Toxoplasma gondii, read-out: IC50 assessed on Toxoplama Gondii.
Assay [2] relates to asynchronous 3D7 chloroquine-sensitive P. falciparum infected red blood cells. As to the kind of experiment: Labeled hypoxanthine incorporation assay (in vitro anti-malarial activity). It counts as cell-based. As to conditions: Plasmodium falciparum, 3D7, Erythrocyte, 3D7 chloroquine-sensitive strain, infected RBC, 48 h contact, [3H]-hypoxanthine incorporation; two independent experiments in duplicates; read-out: IC50 assessed on Plasmodium Falciparum.

Molecules are shown by their SMILES. Counter-ions that a name gives are not always drawn.

On to `CCOC(=O)CCCn1c(=O)n(C2CCN(C(=O)OC[C@H](C)N(Cc3ccccc3)Cc3ccccc3)CC2)c2ccccc21` [Compound 77, (S)-2-(dibenzylamino)propyl 4-(3-(4-ethoxy-4-oxobutyl)-2-oxo-2,3-dihydro-1H-benzo[d]imidazol-1-yl)piperidine-1-carboxylate], for which the concentration for half-maximal inhibition (IC50) in assay [1] turned out to be 5.7 µM; in assay [2] it was 0.6 µM.
Taken in the same sequence, the figures for `C[C@@H](COC(=O)N1CCC(Cn2c(=O)[nH]c3ccccc32)CC1)N(Cc1ccccc1)Cc1ccccc1` [Compound 19, (S)-2-(dibenzylamino)propyl 4-((1,2-dihydro-2-oxobenzo[d]imidazol-3-yl)methyl)piperidine-1-carboxylate] were 3.41 µM and 5.79 µM.
As for `C[C@@H](COC(=O)N1CCC(n2c(=O)n(CCCC(=O)O)c3ccccc32)CC1)N(Cc1ccccc1)Cc1ccccc1` [Compound 78, (S)-4-(3-(1-((2-(dibenzylamino)propoxy)carbonyl)piperidin-4-yl)-2-oxo-2,3-dihydro-1H-benzo[d]imidazol-1-yl)butanoic acid], the concentration for half-maximal inhibition (IC50) in assay [1] is 1.7 µM; in assay [2] it was 6.29 µM.
The matching figures for `O=C(OC[C@H](Cc1ccccc1)N(Cc1ccccc1)Cc1ccccc1)N1CCC(n2c(=O)n(Cc3ccccc3)c3ccccc32)CC1` [Compound 70, (S)-2-(dibenzylamino)-3-phenylpropyl 4-(1-benzyl-1,2-dihydro-2-oxobenzo[d]imidazol-3-yl)piperidine-1-carboxylate]: 3.6 µM and 0.953 µM.
Taken in the same sequence, the figures for `O=C(OCCCN(Cc1ccccc1)Cc1cccc2ccccc12)N1CCC(n2c(=O)[nH]c3ccccc32)CC1` [Compound 144, 3-(benzyl(naphthalen-1-ylmethyl)amino)propyl 4-(2-oxo-2,3-dihydro-1H-benzo[d]imidazol-1-yl)piperidine-1-carboxylate hydrochloride] were 2.7 µM and 3.24 µM.
The matching figures for `C[C@@H](COC(=O)N1CCC(n2c(=O)[nH]c3ccccc32)CC1)N(Cc1ccccc1)Cc1cccs1` [Compound 139, (S)-2-(benzyl(thiophen-2-ylmethyl)amino)propyl 4-(2-oxo-2,3-dihydro-1H-benzo[d]imidazol-1-yl)piperidine-1-carboxylate hydrochloride]: 5 µM and 3.41 µM.
Regarding `COc1cccc(CN(CCOC(=O)N2CCC(n3c(=O)[nH]c4ccccc43)CC2)Cc2ccccc2)c1` [Compound 122, 2-(benzyl(3-methoxybenzyl)amino)ethyl 4-(2-oxo-2,3-dihydro-1H-benzo[d]imidazol-1-yl)piperidine-1-carboxylate hydrochloride], the IC50 amounted to 1.75 µM in assay [1] and 3.72 µM in assay [2].
For `C[C@@H](COC(=O)N1CCC(n2c(=O)n(S(C)(=O)=O)c3ccccc32)CC1)N(Cc1ccccc1)Cc1ccccc1` [Compound 62, (S)-2-(dibenzylamino)propyl 4-(2-oxo-3-methylsulfonyl-2,3-dihydro-1H-benzo[d]imidazol-1-yl)piperidine-1-carboxylate], the IC50 in assay [1] worked out at 1.98 µM; in assay [2], 1.6 µM.
As to `C[C@@H](COC(=S)N1CCC(n2c(=O)[nH]c3ccccc32)CC1)N(Cc1ccccc1)Cc1ccccc1` [Compound 48, O—(S)-2-(dibenzylamino)propyl 4-(1,2-dihydro-2-oxobenzo[d]imidazol-3-yl)piperidine-1-carbothioate], the results for the IC50 in assay [1] and in assay [2] were 1.18 µM and 2.95 µM, respectively.
The matching figures for `C[C@@H](COC(=O)N1CCC(n2c(=O)n(C)c3ccccc32)CC1)N(Cc1ccccc1)Cc1ccccc1` [Compound 69, (S)-2-(dibenzylamino)propyl 4-(1,2-dihydro-1-methyl-2-oxobenzo[d]imidazol-3-yl)piperidine-1-carboxylate]: 0.2 µM and 1.54 µM.
Taken in the same sequence, the figures for `C[C@@H](COC(=O)N1CCC(n2c(=O)[nH]c3ccccc32)CC1)N(Cc1ccccc1)Cc1ccccn1` [Compound 140, (S)-2-(benzyl(pyridin-2-ylmethyl)amino)propyl 4-(2-oxo-2,3-dihydro-1H-benzo[d]imidazol-1-yl)piperidine-1-carboxylate hydrochloride] were 1.8 µM and 3.86 µM.
As for `C[C@@H](CN1CCC(n2c(=O)[nH]c3ccccc32)CC1)N(Cc1ccccc1)Cc1ccccc1` [Compound 50, 1-(1-((S)-2-(dibenzylamino)propyl)piperidin-4-yl)-1H-benzo[d]imidazol-2(3H)-one], the IC50 in assay [1] is 7 µM; in assay [2], 3.34 µM.
Taken in the same sequence, the figures for `O=C(OCCN(Cc1ccccc1)Cc1cccc(Oc2ccccc2)c1)N1CCC(n2c(=O)[nH]c3ccccc32)CC1` [Compound 123, 2-(benzyl(3-phenoxybenzyl)amino)ethyl 4-(2-oxo-2,3-dihydro-1H-benzo[d]imidazol-1-yl)piperidine-1-carboxylate hydrochloride] were 3.7 µM and 1.42 µM.
Taken in the same sequence, the figures for `O=C(OC[C@H](c1ccccc1)N(Cc1ccccc1)Cc1ccccc1)N1CCC(n2c(=O)[nH]c3ccccc32)CC1` [Compound 112, (S)-2-(dibenzylamino)-2-phenylethyl 4-(1,2-dihydro-2-oxobenzo[d]imidazol-3-yl)piperidine-1-carboxylate] were 3.75 µM and 0.5 µM.
In the case of `O=C(OCCCN(Cc1ccccc1)Cc1ccnc2ccccc12)N1CCC(n2c(=O)[nH]c3ccccc32)CC1` [Compound 145, 3-(benzyl(quinolin-4-ylmethyl)amino)propyl 4-(2-oxo-2,3-dihydro-1H-benzo[d]imidazol-1-yl)piperidine-1-carboxylate hydrochloride], the results for the IC50 in assay [1] and in assay [2] were 3.3 µM and 0.731 µM, respectively.
Take `C[C@@H](COC(=O)N1CCC(n2c(=O)oc3ccccc32)CC1)N(Cc1ccccc1)Cc1ccccc1` [Compound 2, (S)-2-(dibenzylamino)propyl 4-(2-oxobenzo[d]oxazol-3(2H)-yl)piperidine-1-carboxylate]: the IC50 in assay [1] came to 0.8 µM; in assay [2] it was 14.8 µM.
Taken in the same sequence, the figures for `O=C(OCCN(Cc1ccccc1)Cc1ccc(F)cc1)N1CCC(n2c(=O)[nH]c3ccccc32)CC1` [Compound 119, 2-(benzyl(4-fluorobenzyl)amino)ethyl 4-(2-oxo-2,3-dihydro-1H-benzo[d]imidazol-1-yl)piperidine-1-carboxylate hydrochloride] were 1.4 µM and 3.57 µM.
For the compound `COc1cccc(CN(CCCOC(=O)N2CCC(n3c(=O)[nH]c4ccccc43)CC2)Cc2ccccc2)c1` [Compound 149, 3-(benzyl(3-methoxybenzyl)amino)propyl 4-(2-oxo-2,3-dihydro-1H-benzo[d]imidazol-1-yl)piperidine-1-carboxylate hydrochloride], the IC50 turned out to be 3.5 µM in assay [1] and 0.588 µM in assay [2].
Taken in the same sequence, the figures for `CC(=O)n1c(=O)n(C2CCN(C(=O)OC[C@H](C)N(Cc3ccccc3)Cc3ccccc3)CC2)c2ccccc21` [Compound 65, (S)-2-(dibenzylamino)propyl 4-(1-acetyl-1,2-dihydro-2-oxobenzo[d]imidazol-3-yl)piperidine-1-carboxylate] were 0.99 µM and 2.94 µM.
The matching figures for `C[C@@H](COC(=O)N1CCC(n2c(=O)[nH]c3ccccc32)CC1)N(CCCc1ccccc1)Cc1ccccc1` [Compound 125, (S)-2-(benzyl(3-phenylpropyl)amino)propyl 4-(2-oxo-2,3-dihydro-1H-benzo[d]imidazol-1-yl)piperidine-1-carboxylate hydrochloride]: 4 µM and 4.2 µM.
On to `C[C@@H](COC(=O)N1CCC(n2c(=O)n(C(=O)OC(C)(C)C)c3ccccc32)CC1)N(Cc1ccccc1)Cc1ccccc1` [Compound 67, tert-butyl 3-(1-(((S)-2-(dibenzylamino)propoxy)carbonyl)piperidin-4-yl)-2,3-dihydro-2-oxobenzo[d]imidazole-1-carboxylate], for which the IC50 in assay [1] stood at 2 µM; in assay [2] it was 0.785 µM.
The matching figures for `C[C@@H](COC(=O)N1CCC(N(c2ccccc2)S(=O)(=O)c2cccc(C(F)(F)F)c2)CC1)N(Cc1ccccc1)Cc1ccccc1` [Compound 169, (S)-2-(dibenzylamino)propyl 4-(N-phenyl-3-(trifluoromethyl)phenylsulfonamido)piperidine-1-carboxylate]: 3.2 µM and 0.553 µM.
The matching figures for `C[C@@H](COC(=O)N1CCC(n2c(=O)n(-c3ccccc3)c3ccccc32)CC1)N(Cc1ccccc1)Cc1ccccc1` [Compound 75, (S)-2-(dibenzylamino)propyl 4-(1,2-dihydro-2-oxo-1-phenylbenzo[d]imidazol-3-yl)piperidine-1-carboxylate]: 3.5 µM and 2.29 µM.
Taken in the same sequence, the figures for `COc1cc(NC2CCN(C(=O)OC[C@H](C)N(Cc3ccccc3)Cc3ccccc3)CC2)cc(OC)c1OC` [Compound 83, (S)-2-(dibenzylamino)propyl 4-(3,4,5-trimethoxyphenylamino)piperidine-1-carboxylate] were 16 µM and 3.09 µM.
In the case of `C[C@@H](COC(=O)N1CCC(n2c(=O)[nH]c3ccccc32)C1)N(Cc1ccccc1)Cc1ccccc1` (stereo partly drawn) [Compound 17, (S)-2-(dibenzylamino)propyl 3-(1,2-dihydro-2-oxobenzo[d]imidazol-3-yl)pyrrolidine-1-carboxylate], the IC50 turned out to be 3.3 µM in assay [1] and 7.18 µM in assay [2].
As to `C[C@@H](COC(=O)N1CCC(Nc2nc3ccccc3n2C(=O)OC[C@H](C)N(Cc2ccccc2)Cc2ccccc2)CC1)N(Cc1ccccc1)Cc1ccccc1` [Compound 94, (S)-2-(dibenzylamino)propyl 2-(1-(((S)-2-(dibenzylamino)propoxy)carbonyl)piperidin-4-ylamino)-1H-benzo[d]imidazole-1-carboxylate], the IC50 turned out to be 9 µM in assay [1] and 2.62 µM in assay [2].

These data come from patent US20100292214A1, “Compounds with Antiparasitic Activity, Applications thereof to the Treatment of Infectious Diseases Caused by Apicomplexans” (commissariat a l'Energie Atomique, priority 2007, published 2010).
